Source: ChEMBL document CHEMBL4311936, “Synthesis and structure-activity relationship studies of IgG-binding peptides focused on the C-terminal histidine residue” (Medchemcomm, 2019)
Bridge positions count the residues as written; N and C are the ends. Square brackets hold non-standard residues; d marks the D form. Peptide text beside a SMILES is read from it. ξ: configuration not given here. ξ2Pal = NC(Cc1ccccn1)C(=O)O; ξDab = NCCC(N)C(=O)O

Legend:
[1] = Binding affinity to IgG (unknown origin) assessed as dissociation constant; set-up: species or system Homo sapiens
Homo sapiens [2] = species on record: Homo sapiens; experiment: Binding affinity to IgG (unknown origin) assessed as association rate constant
[3] = Binding affinity to human IgG assessed as dissociation constant by SPR analysis
Homo sapiens [4] = species on record: Homo sapiens; experiment: Binding affinity to human IgG assessed as association rate constant by SPR analysis
Homo sapiens [5] = species on record: Homo sapiens; experiment: Binding affinity to human IgG assessed as dissociation rate constant by SPR analysis

| SMILES | Kd [1] [nM] | Ka (Homo sapiens [2]) [M⁻¹ s⁻¹] | Kd [3] [nM] | Ka (Homo sapiens [4]) [M⁻¹ s⁻¹] | Kdiss (Homo sapiens [5]) [s⁻¹] |
| --- | --- | --- | --- | --- | --- |
| CC(C)C[C@@H]1NC(=O)[C@H](Cc2cnc[nH]2)NC(=O)[C@H](Cc2c[nH]c3ccccc23)NC(=O)[C@H](C)NC(=O)[C@@H](NC(=O)[C@H](CC(=O)O)NC(=O)[C@@H]2CCCN2)CSSC[C@@H](C(=O)N[C@H](C(=O)N2CCC[C@@H]2C(N)=O)[C@@H](C)O)NC(=O)[C@H](Cc2c[nH]c3ccccc23)NC(=O)[C@H](C(C)C)NC(=O)[C@H](CC(C)C)NC(=O)[C@H](CCC(=O)O)NC(=O)CNC1=O | 2.2 | – | – | – | – |
| CC(C)C[C@@H]1NC(=O)[C@H](Cc2cnc[nH]2)NC(=O)[C@H](Cc2c[nH]c3ccccc23)NC(=O)[C@H](C)NC(=O)[C@@H]2CSSC[C@H](NC(=O)[C@H](Cc3c[nH]c4ccccc34)NC(=O)[C@H](C(C)C)NC(=O)[C@H](CC(C)C)NC(=O)[C@H](CCC(=O)O)NC(=O)CNC1=O)C(=O)N[C@@H]([C@@H](C)O)C(=O)N[C@H](C(=O)O)CSSC[C@H](N)C(=O)N[C@@H](CC(=O)O)C(=O)N2 | 2.45 | – | – | – | – |
| CC(=O)N[C@@H](CC(=O)O)C(=O)N[C@H]1CSSC[C@@H](C(=O)N[C@H](C(=O)N[C@@H](Cc2ccccc2)C(=O)N[C@@H](Cc2cnc[nH]2)C(N)=O)[C@@H](C)O)NC(=O)[C@H](Cc2c[nH]c3ccccc23)NC(=O)[C@H](C(C)C)NC(=O)[C@H](CC(C)C)NC(=O)[C@H](CCC(=O)O)NC(=O)CNC(=O)[C@H](CCCCN)NC(=O)[C@H](Cc2cnc[nH]2)NC(=O)[C@H](Cc2ccc(O)cc2)NC(=O)[C@H](C)NC1=O (Ac-DCAYHKGELVWCTFH-NH2; disulfide 2-12) | – | 741000 | – | – | – |
| CC(=O)N[C@@H](CC(=O)O)C(=O)N[C@H]1CSSC[C@@H](C(=O)N[C@H](C(=O)N[C@@H](Cc2ccccc2)C(=O)NC(CCN)C(N)=O)[C@@H](C)O)NC(=O)[C@H](Cc2c[nH]c3ccccc23)NC(=O)[C@H](C(C)C)NC(=O)[C@H](CC(C)C)NC(=O)[C@H](CCC(=O)O)NC(=O)CNC(=O)[C@H](CCCCN)NC(=O)[C@H](Cc2cnc[nH]2)NC(=O)[C@H](Cc2ccc(O)cc2)NC(=O)[C@H](C)NC1=O (some centres undefined) (Ac-DCAYHKGELVWCTF[ξDab]-NH2; disulfide 2-12) | – | – | 1020 | 731000 | 0.749 |
| CC(=O)N[C@@H](CC(=O)O)C(=O)N[C@H]1CSSC[C@@H](C(=O)N[C@H](C(=O)N[C@@H](Cc2ccccc2)C(=O)N[C@@H](Cc2cnc[nH]2)C(N)=O)[C@@H](C)O)NC(=O)[C@H](Cc2c[nH]c3ccccc23)NC(=O)[C@H](C(C)C)NC(=O)[C@H](CC(C)C)NC(=O)[C@H](CCC(=O)O)NC(=O)CNC(=O)[C@H](CC(C)C)NC(=O)[C@H](Cc2cnc[nH]2)NC(=O)[C@H](Cc2ccc(O)cc2)NC(=O)[C@H](C)NC1=O (Ac-DCAYHLGELVWCTFH-NH2; disulfide 2-12) | – | 1.47e+06 | – | – | – |
| CC(=O)N[C@@H](CC(=O)O)C(=O)N[C@H]1CSSC[C@@H](C(=O)N[C@H](C(=O)N[C@@H](Cc2ccccc2)C(=O)NC(Cc2ccccn2)C(=O)O)[C@@H](C)O)NC(=O)[C@H](Cc2c[nH]c3ccccc23)NC(=O)[C@H](C(C)C)NC(=O)[C@H](CC(C)C)NC(=O)[C@H](CCC(=O)O)NC(=O)CNC(=O)[C@H](CC(C)C)NC(=O)[C@H](Cc2cnc[nH]2)NC(=O)[C@H](Cc2ccc(O)cc2)NC(=O)[C@H](C)NC1=O (some centres undefined) (Ac-DCAYHLGELVWCTF[ξ2Pal]-OH; disulfide 2-12) | – | – | 2.48 | 1.35e+06 | 0.0033 |
| CC(=O)N[C@@H](CC(=O)O)C(=O)N[C@H]1CSSC[C@@H](C(=O)N[C@H](C(=O)N[C@@H](Cc2ccccc2)C(=O)NC(Cc2ccccn2)C(N)=O)[C@@H](C)O)NC(=O)[C@H](Cc2c[nH]c3ccccc23)NC(=O)[C@H](C(C)C)NC(=O)[C@H](CC(C)C)NC(=O)[C@H](CCC(=O)O)NC(=O)CNC(=O)[C@H](CC(C)C)NC(=O)[C@H](Cc2cnc[nH]2)NC(=O)[C@H](Cc2ccc(O)cc2)NC(=O)[C@H](C)NC1=O (mixture of isomers) | – | – | 2.19 | 1.49e+06 | 0.00326 |
| CC(=O)N[C@@H](CC(=O)O)C(=O)N[C@H]1CSSC[C@@H](C(=O)N[C@H](C(=O)N[C@@H](Cc2ccccc2)C(=O)NC(Cc2ccccn2)C(=O)O)[C@@H](C)O)NC(=O)[C@H](Cc2c[nH]c3ccccc23)NC(=O)[C@H](C(C)C)NC(=O)[C@H](CC(C)C)NC(=O)[C@H](CCC(=O)O)NC(=O)CNC(=O)[C@H](CCCCN)NC(=O)[C@H](Cc2cnc[nH]2)NC(=O)[C@H](Cc2ccc(O)cc2)NC(=O)[C@H](C)NC1=O (mixture of isomers) | – | – | 97.6 | 690000 | 0.0674 |
| CC(=O)N[C@@H](CC(=O)O)C(=O)N[C@H]1CSSC[C@@H](C(=O)N[C@H](C(=O)N[C@@H](Cc2ccccc2)C(=O)NC(Cc2ccccn2)C(N)=O)[C@@H](C)O)NC(=O)[C@H](Cc2c[nH]c3ccccc23)NC(=O)[C@H](C(C)C)NC(=O)[C@H](CC(C)C)NC(=O)[C@H](CCC(=O)O)NC(=O)CNC(=O)[C@H](CCCCN)NC(=O)[C@H](Cc2cnc[nH]2)NC(=O)[C@H](Cc2ccc(O)cc2)NC(=O)[C@H](C)NC1=O (mixture of isomers) | – | – | 75.7 | 764000 | 0.0579 |
